From paper PMC11813896, “Bis(7)-harmine derivatives as potential multi-target anti-Alzheimer agents” (Frontiers in Chemistry, 2025)

Experiments:
hAChE = hAChE (Homo sapiens, UniProt P22303); assay: biochemical; settings: for inhibition at 1 µM: compound at 1 μM, read-out: inhibition of hAChE in primary screening; for IC50: Mean ± SD from 3-5 assays, read-out: IC50 (nM) for cholinesterase hAChE
Protocol: 50 μL of hAChE (0.02 unit/mL) or hBChE (0.02 unit/mL) were incubated with 10 μL of the compound in 96-well plates at 37°C for 6 min. Subsequently, 30 μL of a substrate solution containing acetylthiocholine iodide (ATCI) or butyrylthiocholine iodide (BTCI) at a concentration of 0.01 M was added, and the mixture was further incubated at 37°C for an additional duration of 12 min.

hBuChE = hBuChE (Homo sapiens, UniProt P06276); assay: Ellman's assay, hBuChE inhibition; assay type: biochemical; settings: for inhibition at 1 µM: compound at 1 μM, read-out: inhibition of hBuChE in primary screening; for IC50: Mean ± SD from 3-5 assays, read-out: IC50 (nM) for cholinesterase hBuChE
Sequence of hBuChE (P06276 29-602): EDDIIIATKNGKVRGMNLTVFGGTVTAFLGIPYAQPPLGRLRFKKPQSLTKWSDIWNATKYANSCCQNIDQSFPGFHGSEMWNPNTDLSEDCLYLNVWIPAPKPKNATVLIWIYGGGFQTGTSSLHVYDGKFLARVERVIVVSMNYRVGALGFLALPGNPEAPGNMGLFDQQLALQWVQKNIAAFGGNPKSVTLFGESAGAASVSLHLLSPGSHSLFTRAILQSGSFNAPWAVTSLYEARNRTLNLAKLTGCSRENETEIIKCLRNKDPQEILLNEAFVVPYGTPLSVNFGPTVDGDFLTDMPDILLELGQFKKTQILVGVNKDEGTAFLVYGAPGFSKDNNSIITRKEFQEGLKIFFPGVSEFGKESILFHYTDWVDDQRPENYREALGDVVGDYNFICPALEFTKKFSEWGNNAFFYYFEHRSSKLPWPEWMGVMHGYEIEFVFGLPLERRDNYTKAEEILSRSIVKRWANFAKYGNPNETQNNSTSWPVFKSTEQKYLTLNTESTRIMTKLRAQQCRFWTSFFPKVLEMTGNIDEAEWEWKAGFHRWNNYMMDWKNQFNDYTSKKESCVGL
Protocol: The Ellman’s assay was utilized to assess the inhibitory potential of novel bis(7)-harmine derivatives against hAChE and hBuChE. 50 μL of hAChE (0.02 unit/mL) or hBChE (0.02 unit/mL) were incubated with 10 μL of the compound in 96-well plates at 37°C for 6 min. Subsequently, 30 μL of a substrate solution containing acetylthiocholine iodide (ATCI) or butyrylthiocholine iodide (BTCI) at a concentration of 0.01 M was added, and the mixture was further incubated at 37°C for an additional duration of 12 min. Finally, the activity was measured by adding 150 μL of a solution containing 5,5′−dithiobis (2-nitrobenzoic acid) (DTNB) at a concentration of 0.01 M, followed by measuring absorbance at a wavelength of 415 nm using an Evolution 300 PC UV-Vis Spectrophotometer.

recombinant hMAO-A = target: T1, recombinant hMAO-A (Homo sapiens, UniProt P21397); assay: biochemical; settings: for inhibition at 1 µM: compound at 1 μM, read-out: inhibition of hMAO-A in primary screening; for IC50: mean ± SD, read-out: IC50 (nM) for monoamine oxidases hMAO-A
T1 construct: purchased Sigma-Aldrich
T1 sequence (P21397 1-527): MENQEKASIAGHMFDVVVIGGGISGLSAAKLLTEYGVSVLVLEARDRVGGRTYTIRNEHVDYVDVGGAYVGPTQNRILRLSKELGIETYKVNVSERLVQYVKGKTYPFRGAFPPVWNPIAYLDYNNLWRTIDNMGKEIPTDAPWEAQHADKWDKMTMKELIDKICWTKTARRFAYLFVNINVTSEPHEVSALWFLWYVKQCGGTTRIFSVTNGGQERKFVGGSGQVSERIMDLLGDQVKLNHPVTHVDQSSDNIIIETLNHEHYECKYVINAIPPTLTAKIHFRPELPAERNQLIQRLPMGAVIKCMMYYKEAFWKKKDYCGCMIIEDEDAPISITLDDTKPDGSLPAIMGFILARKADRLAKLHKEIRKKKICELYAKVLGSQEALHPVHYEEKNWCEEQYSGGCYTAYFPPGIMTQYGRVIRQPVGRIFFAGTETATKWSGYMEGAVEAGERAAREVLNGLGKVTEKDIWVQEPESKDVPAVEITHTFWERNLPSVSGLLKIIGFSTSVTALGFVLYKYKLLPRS
Protocol: (§1) Briefly, the compounds under investigation and the reference inhibitor were preincubated with kynuramine at 37°C for 10 min in 96-well microplates. […] The enzymatic reactions were terminated by adding 400 μL of 2 N NaOH and 1,000 μL of water, followed by centrifugation at 16,000 g for 10 min. Subsequently, the concentrations of MAOs that produced 4-hydroxyquinoline were determined by measuring the fluorescence of the supernatant using a Varioskan Flash Multimode Reader ([…]) with excitation and emission wavelengths set at 310 nm and 400 nm, respectively. The IC50 values were calculated from dose-response curves and expressed as the mean ± standard deviation. These values were determined based on at least three independent experiments, each performed in triplicate.

recombinant hMAO-B = target: T2, recombinant hMAO-B (Homo sapiens, UniProt P27338); assay: biochemical; settings: for inhibition at 1 µM: compound at 1 μM, read-out: inhibition of hMAO-B in primary screening; for IC50: mean ± SD, read-out: IC50 (nM) for monoamine oxidases hMAO-B
T2 construct: purchased Sigma-Aldrich
T2 sequence (P27338 1-520): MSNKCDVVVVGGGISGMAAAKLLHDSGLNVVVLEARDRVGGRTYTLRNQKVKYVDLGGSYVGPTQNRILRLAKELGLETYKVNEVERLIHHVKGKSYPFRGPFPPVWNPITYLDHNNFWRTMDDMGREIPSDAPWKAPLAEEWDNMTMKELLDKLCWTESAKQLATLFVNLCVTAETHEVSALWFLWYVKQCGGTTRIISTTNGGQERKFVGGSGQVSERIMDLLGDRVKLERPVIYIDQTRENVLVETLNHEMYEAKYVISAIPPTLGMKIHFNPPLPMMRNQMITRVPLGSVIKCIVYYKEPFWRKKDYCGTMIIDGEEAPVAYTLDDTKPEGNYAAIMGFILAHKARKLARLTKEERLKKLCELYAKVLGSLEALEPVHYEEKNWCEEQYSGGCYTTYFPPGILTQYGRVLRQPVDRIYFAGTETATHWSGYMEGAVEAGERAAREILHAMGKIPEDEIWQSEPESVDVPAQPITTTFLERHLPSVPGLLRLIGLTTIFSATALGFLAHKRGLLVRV
Protocol: as §1

Aβ 1−42 = Aβ 1−42 (Homo sapiens, UniProt P05067); assay: Thioflavin T fluorescence assay, Aβ 1−42 self-aggregation; assay type: biochemical; settings: for inhibition percent ratio of self-induced Aβ 1-42 aggregation: compound at 20 μM; for IC50: Aβ 1-42 20 μM, 37°C, 24 h
Sequence of Aβ 1−42 (P05067 672-713 limits assumed): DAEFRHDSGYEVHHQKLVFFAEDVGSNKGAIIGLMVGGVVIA
Protocol: The thioflavin T (Th-T) fluorescence assay was used to assess the inhibition of Aβ 1−42 self-aggregation. […] Subsequently, the reaction was terminated to a final volume of 200 μL using Th-T (10 μM) solution.

Sequence of hAChE (P22303 32-614): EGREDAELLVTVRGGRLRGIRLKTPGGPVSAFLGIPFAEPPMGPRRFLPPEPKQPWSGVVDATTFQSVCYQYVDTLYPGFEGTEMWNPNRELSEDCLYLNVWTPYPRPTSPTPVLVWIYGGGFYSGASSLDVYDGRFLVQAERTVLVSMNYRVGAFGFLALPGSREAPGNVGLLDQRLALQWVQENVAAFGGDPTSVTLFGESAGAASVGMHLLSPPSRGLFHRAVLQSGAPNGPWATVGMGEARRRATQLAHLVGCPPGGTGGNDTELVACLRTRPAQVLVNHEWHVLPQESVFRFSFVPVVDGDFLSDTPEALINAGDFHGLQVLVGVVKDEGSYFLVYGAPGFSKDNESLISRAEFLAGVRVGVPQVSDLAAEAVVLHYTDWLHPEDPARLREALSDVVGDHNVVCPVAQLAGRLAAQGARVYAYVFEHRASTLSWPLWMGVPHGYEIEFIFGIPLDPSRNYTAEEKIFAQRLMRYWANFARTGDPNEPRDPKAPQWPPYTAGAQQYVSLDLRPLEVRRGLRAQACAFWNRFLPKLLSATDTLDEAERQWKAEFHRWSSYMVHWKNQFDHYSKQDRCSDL

SMILES	inhibition at 1 µM (hAChE) [%]	inhibition at 1 µM (hBuChE) [%]	inhibition at 1 µM (recombinant hMAO-A) [%]	inhibition at 1 µM (recombinant hMAO-B) [%]	inhibition percent ratio of self-induced Aβ 1-42 aggregation (Aβ 1−42) [%]	S.I. Selectivity index IC50(hBuChE)/IC50(hAChE) (hAChE)	IC50 (hAChE) [nM]	S.I. Selectivity index IC50(hMAO-B)/IC50(hMAO-A) (recombinant hMAO-A)	IC50 (recombinant hMAO-A) [nM]	IC50 (hBuChE) [nM]	IC50 (recombinant hMAO-B) [nM]	IC50 (Aβ 1−42) [µM]
Cc1nccc2c3ccc(OCCCCOc4ccc5c6ccnc(C)c6n(C)c5c4)cc3n(C)c12 [Compound 4a, 1,4-bis ((1,9-dimethyl-9H-pyrido [3,4-b]indol-7-yl)oxy)butane]	36.3	30.5	41.5	13.8	39.3	–	–	–	–	–	–	–
CCn1c2cc(OCCCCOc3ccc4c5ccnc(C)c5n(CC)c4c3)ccc2c2ccnc(C)c21 [Compound 4b, 1,4-bis ((9-ethyl-1-methyl-9H-pyrido [3,4-b]indol-7-yl)oxy)butane]	–	36.7	–	28.6	27.6	>9.9	101 ± 6.8	>1.4	686 ± 43.5	–	–	–
CCCn1c2cc(OCCCCOc3ccc4c5ccnc(C)c5n(CCC)c4c3)ccc2c2ccnc(C)c21 [Compound 4c, 1,4-bis ((1-methyl-9-propyl-9H-pyrido [3,4-b]indol-7-yl)oxy)butane]	–	–	48.6	17.8	33.2	10.2	68 ± 5.1	–	–	694 ± 43.2	–	–
C=CCn1c2cc(OCCCCOc3ccc4c5ccnc(C)c5n(CC=C)c4c3)ccc2c2ccnc(C)c21 [Compound 4d, 1,4-bis ((9-allyl-1-methyl-9H-pyrido [3,4-b]indol-7-yl)oxy)butane]	45.6	32.9	49.3	30.3	35.5	–	–	–	–	–	–	–
Cc1nccc2c3ccc(OCCCCCOc4ccc5c6ccnc(C)c6n(C)c5c4)cc3n(C)c12 [Compound 5a, 1,5-bis ((1,9-dimethyl-9H-pyrido [3,4-b]indol-7-yl)oxy)pentane]	–	–	–	25.6	40.6	0.3	827 ± 41.5	>4.1	241 ± 13.8	256 ± 15.7	–	–
CCn1c2cc(OCCCCCOc3ccc4c5ccnc(C)c5n(CC)c4c3)ccc2c2ccnc(C)c21 [Compound 5b, 1,5-bis ((9-ethyl-1-methyl-9H-pyrido [3,4-b]indol-7-yl)oxy)pentane]	–	–	42.4	33.7	31.8	8.1	115 ± 7.36	–	–	928 ± 62.1	–	–
CCCn1c2cc(OCCCCCOc3ccc4c5ccnc(C)c5n(CCC)c4c3)ccc2c2ccnc(C)c21 [Compound 5c, 1,5-bis ((1-methyl-9-propyl-9H-pyrido [3,4-b]indol-7-yl)oxy)pentane]	–	45.6	39.5	27.5	29.4	>13.7	73.8 ± 4.28	–	–	–	–	–
C=CCn1c2cc(OCCCCCOc3ccc4c5ccnc(C)c5n(CC=C)c4c3)ccc2c2ccnc(C)c21 [Compound 5d, 1,5-bis ((9-allyl-1-methyl-9H-pyrido [3,4-b]indol-7-yl)oxy)pentane]	–	41.2	41.1	29.8	43.6	>3.4	288 ± 21.3	–	–	–	–	–
Cc1nccc2c3ccc(OCCCCCCOc4ccc5c6ccnc(C)c6n(C)c5c4)cc3n(C)c12 [Compound 6a, 1,6-bis ((1,9-dimethyl-9H-pyrido [3,4-b]indol-7-yl)oxy)hexane]	–	–	–	–	–	0.7	493 ± 30.3	7.1	123 ± 7.2	331 ± 21.5	863 ± 61.3	19.8 ± 1.1
CCn1c2cc(OCCCCCCOc3ccc4c5ccnc(C)c5n(CC)c4c3)ccc2c2ccnc(C)c21 [Compound 6b, 1,6-bis ((9-ethyl-1-methyl-9H-pyrido [3,4-b]indol-7-yl)oxy)hexane]	–	–	–	41.2	40.2	0.1	652 ± 35.8	>1.1	893 ± 59.3	86.8 ± 5.3	–	–
CCCn1c2cc(OCCCCCCOc3ccc4c5ccnc(C)c5n(CCC)c4c3)ccc2c2ccnc(C)c21 [Compound 6c, 1,6-bis ((1-methyl-9-propyl-9H-pyrido [3,4-b]indol-7-yl)oxy)hexane]	–	–	–	–	35.8	12.1	82.1 ± 6.9	25.2	21 ± 1.18	994 ± 73.4	529 ± 38.7	–
CCn1c2cc(OCCCCCCCOc3ccc4c5ccnc(C)c5n(CC)c4c3)ccc2c2ccnc(C)c21 [Compound 7b, 1,7-bis ((9-ethyl-1-methyl-9H-pyrido [3,4-b]indol-7-yl)oxy)heptane]	–	36.5	–	–	29.6	>2.6	386 ± 26.8	0.5	150 ± 12.4	–	79.8 ± 4.9	–
CCCn1c2cc(OCCCCCCCOc3ccc4c5ccnc(C)c5n(CCC)c4c3)ccc2c2ccnc(C)c21 [Compound 7c, 1,7-bis ((1-methyl-9-propyl-9H-pyrido [3,4-b]indol-7-yl)oxy)heptane]	–	44.8	–	34.1	–	>25.6	39.2 ± 2.9	>111.1	9.1 ± 0.6	–	–	13.3 ± 0.6
C=CCn1c2cc(OCCCCCCCOc3ccc4c5ccnc(C)c5n(CC=C)c4c3)ccc2c2ccnc(C)c21 [Compound 7d, 1,7-bis ((9-allyl-1-methyl-9H-pyrido [3,4-b]indol-7-yl)oxy)heptane]	–	–	–	–	–	–	896 ± 65.4	0.2	74.6 ± 5.2	23.7 ± 1.3	12.6 ± 0.76	17.1 ± 0.6
Cc1nccc2c3ccc(OCCCCCCCCOc4ccc5c6ccnc(C)c6n(C)c5c4)cc3n(C)c12 [Compound 8a, 1,8-bis ((1,9-dimethyl-9H-pyrido [3,4-b]indol-7-yl)oxy)octane]	42.2	39.1	–	–	–	–	–	10.0	95.2 ± 4.9	–	954 ± 49.8	16.5 ± 0.4
